Experimental data from patent publication US8231888B2, “Isoxazolines for controlling invertebrate pests” (priority 2005, dated 2012).

Legend:
Assay type in all cases: in vivo
[1] = test system: western flower thrips (Frankliniella occidentalis); assay: Test D: control of western flower thrips on Soleil bean plant, contact and/or systemic; settings: 6 days, 25° C.
Experimental: (§1) Test compounds were formulated using a solution containing 10% acetone, 90% water and 300 ppm X-77™ Spreader Lo-Foam Formula non-ionic surfactant containing alkylarylpolyoxyethylene, free fatty acids, glycols and isopropanol (Loveland Industries, Inc. Greeley, Colo., USA). The formulated compounds were applied in 1 mL of liquid through a SUJ2 atomizer nozzle with 1/8 JJ custom body (Spraying Systems Co. Wheaton, Ill., USA) positioned 1.27 cm (0.5 inches) above the top of each test unit. All experimental compounds in these tests were sprayed at 250 and/or 50 ppm, and the test was replicated three times. After spraying of the formulated test compound, each test unit was allowed to dry for 1 h and then a black, screened cap was placed on top. The test units were held for 6 days in a growth chamber at 25° C. and 70% relative humidity. Plant feeding damage was then visually assessed based on foliage consumed and a pest mortality rating was also counted and calculated for each test unit.
For evaluating control of the western flower thrips (Frankliniella occidentalis) through contact and/or systemic means, the test unit consisted of a small open container with a 5-7 day old Soleil Bean plant inside. Test compounds were formulated and sprayed at 250 and/or 50 ppm, and the test was replicated three times as described for Test A. After spraying, the test units were allowed to dry for 1 hour and then 22-27 adult thrips were added to each unit and then a black, screened cap was placed on top. The test units were held for 6 days at 25° C. and 45-55% relative humidity. A mortality rating was assessed along with a plant damage rating for each test unit.

[2] = test system: fall armyworm (Spodoptera frugiperda); assay: Test B: control of fall armyworm on corn (maize) plant, foliar spray; settings: sprayed at 250 and/or 50 ppm; no asterisk (not limited to 250 ppm)
Experimental: as §1
For evaluating control of fall armyworm (Spodoptera frugiperda) the test unit consisted of a small open container with a 4-5-day-old corn (maize) plant inside. This was pre-infested (using a core sampler) with 10-15 1-day-old larvae on a piece of insect diet. Test compounds were formulated and sprayed at 250 and/or 50 ppm as described for Test A and replicated three times. After spraying, the test units were maintained in a growth chamber and then the control efficacy was rated for each test unit as described for Test A.

[3] = test system: diamondback moth (Plutella xylostella); assay: Test A: control of diamondback moth on radish plant, foliar spray; settings: sprayed at 250 and/or 50 ppm, 6 days, 25° C.; no asterisk (not limited to 250 ppm)
Source text: For evaluating control of diamondback moth (Plutella xylostella) the test unit consisted of a small open container with a 12-14-day-old radish plant inside. This was pre-infested with about 50 neonate larvae that were dispensed into the test unit via corn cob grits using a bazooka inoculator. The larvae moved onto the test plant after being dispensed into the test unit.
as §1

[4] = asterisk: observed only at 250 ppm
[5] = sprayed at 250 and/or 50 ppm, no asterisk (not limited to 250 ppm)

Row | Compound | control efficacy (20% or less feeding damage or 80% or more mortality) [1, 4] | control efficacy (20% or less feeding damage or 80% or more mortality) [2] | control efficacy (20% or less feeding damage or 80% or more mortality) [3] | control efficacy (20% or less feeding damage or 80% or more mortality) [1, 5]
1 | CC(NC(=O)c1ccc(C2=NOC(c3cc(Cl)cc(Cl)c3)(C(F)(F)F)C2)c2ccccc12)c1ccccc1 (mixture of isomers) [Compound 15] | very good to excellent levels of control efficacy | very good to excellent levels of control efficacy | very good to excellent levels of control efficacy | 
2 | CCC(C)NC(=O)c1ccc(C2=NOC(c3cc(Cl)cc(Cl)c3)(C(F)(F)F)C2)c2ccccc12 (mixture of isomers) [Compound 32] |  | very good to excellent levels of control efficacy | very good to excellent levels of control efficacy | very good to excellent levels of control efficacy
3 | O=C(NCC(F)(F)F)c1ccc(C2=NOC(c3cc(Cl)cc(Cl)c3)(C(F)(F)F)C2)c2ccccc12 (centres unmarked) [Compound 1] |  | very good to excellent levels of control efficacy | very good to excellent levels of control efficacy | very good to excellent levels of control efficacy
4 | FC(F)(F)C1(c2cc(Cl)cc(Cl)c2)CC(c2ccc(C(=S)NCc3ccccn3)c3ccccc23)=NO1 (centres unmarked) [Compound 8] |  | very good to excellent levels of control efficacy | very good to excellent levels of control efficacy | very good to excellent levels of control efficacy
5 | CCNC(=O)c1ccc(C2=NOC(c3cc(Cl)cc(Cl)c3)(C(F)(F)F)C2)c2ccccc12 (centres unmarked) [Compound 10] |  | very good to excellent levels of control efficacy | very good to excellent levels of control efficacy | very good to excellent levels of control efficacy
6 | COC(=O)N(Cc1ccccn1)C(=O)c1ccc(C2=NOC(c3cc(Cl)cc(Cl)c3)(C(F)(F)F)C2)c2ccccc12 (centres unmarked) [Compound 11] |  | very good to excellent levels of control efficacy | very good to excellent levels of control efficacy | very good to excellent levels of control efficacy
7 | CN(C)CCNC(=O)c1ccc(C2=NOC(c3cc(Cl)cc(Cl)c3)(C(F)(F)F)C2)c2ccccc12 (centres unmarked) [Compound 13] | very good to excellent levels of control efficacy | very good to excellent levels of control efficacy | very good to excellent levels of control efficacy | 
8 | CN(C)CCNC(=O)c1ccc(C2=NOC(c3cc(Cl)cc(Cl)c3)(C(F)(F)F)C2)c2ccccc12.Cl (centres unmarked) [Compound 14] | very good to excellent levels of control efficacy | very good to excellent levels of control efficacy | very good to excellent levels of control efficacy | 
9 | CC(C)NC(=O)c1ccc(C2=NOC(c3cc(Cl)cc(Cl)c3)(C(F)(F)F)C2)c2ccccc12 (centres unmarked) [Compound 16] |  | very good to excellent levels of control efficacy | very good to excellent levels of control efficacy | very good to excellent levels of control efficacy
10 | C=CCNC(=O)c1ccc(C2=NOC(c3cc(Cl)cc(Cl)c3)(C(F)(F)F)C2)c2ccccc12 (centres unmarked) [Compound 18] |  | very good to excellent levels of control efficacy | very good to excellent levels of control efficacy | very good to excellent levels of control efficacy
11 | C#CCNC(=O)c1ccc(C2=NOC(c3cc(Cl)cc(Cl)c3)(C(F)(F)F)C2)c2ccccc12 (centres unmarked) [Compound 19] |  | very good to excellent levels of control efficacy | very good to excellent levels of control efficacy | very good to excellent levels of control efficacy
12 | O=C(NCC1CC1)c1ccc(C2=NOC(c3cc(Cl)cc(Cl)c3)(C(F)(F)F)C2)c2ccccc12 (centres unmarked) [Compound 20] | very good to excellent levels of control efficacy | very good to excellent levels of control efficacy | very good to excellent levels of control efficacy | 
13 | CC(NC(=O)c1ccc(C2=NOC(c3cc(Cl)cc(Cl)c3)(C(F)(F)F)C2)c2ccccc12)c1ccccn1 (centres unmarked) [Compound 21] |  | very good to excellent levels of control efficacy | very good to excellent levels of control efficacy | very good to excellent levels of control efficacy
14 | O=C(NCc1ccccn1)c1ccc(C2=NOC(c3cc(Br)cc(Br)c3)(C(F)(F)F)C2)c2ccccc12 (centres unmarked) [Compound 26] |  | very good to excellent levels of control efficacy | very good to excellent levels of control efficacy | very good to excellent levels of control efficacy
15 | CC(NC(=O)c1ccc(C2=NOC(c3cc(Cl)cc(Cl)c3)(C(F)(F)F)C2)c2ccccc12)C(C)(C)C (centres unmarked) [Compound 34] | very good to excellent levels of control efficacy | very good to excellent levels of control efficacy | very good to excellent levels of control efficacy | 
16 | O=C(NCCO)c1ccc(C2=NOC(c3cc(Cl)cc(Cl)c3)(C(F)(F)F)C2)c2ccccc12 (centres unmarked) [Compound 35] |  | very good to excellent levels of control efficacy | very good to excellent levels of control efficacy | very good to excellent levels of control efficacy
17 | COC(=O)[C@H](C)NC(=O)c1ccc(C2=NOC(c3cc(Cl)cc(Cl)c3)(C(F)(F)F)C2)c2ccccc12 (some centres unmarked) [Compound 48] | very good to excellent levels of control efficacy |  | very good to excellent levels of control efficacy | 
